# Results published in patent US9113629B2, “4-amino-6-(4-substituted-phenyl)-picolinates and 6-amino-2-(4-substituted-phenyl)-pyrimidine-4-carboxylates and their use as herbicides” (DOW AGROSCIENCES LLC, priority 2013, dated 2015).
# Test system: test plant species in Direct Seeded Rice
# Assay: Postemergence herbicidal activity in direct seeded rice (Table 13)
# Assay type: in vivo
# Settings: BRAPP: broadleaf signalgrass, Brachiaria platyphylla; probit analysis
# Description: Seeds or nutlets of the desired test plant species were planted in a soil matrix prepared by mixing a loam soil (43 percent silt, 19 percent clay, and 38 percent sand, with a pH of about 8.1 and an organic matter content of about 1.5 percent) and river sand in an 80 to 20 ratio. The soil matrix was contained in plastic pots with a surface area of 139.7 cm^2. When required to ensure good germination and healthy plants, a fungicide treatment and/or other chemical or physical treatment was applied. The plants were grown for 10-17 d in a greenhouse with an approximate 14-h photoperiod which was maintained at about 29° C. during the day and 26° C. during the night. Nutrients and water were added on a regular basis and supplemental lighting was provided with overhead metal halide 1000-Watt lamps as necessary. The plants were employed for testing when they reached the second or third true leaf stage. A weighed amount, determined by the highest rate to be tested, of each test compound was placed in 25 mL glass vials and dissolved in a volume of 97:3 v/v acetone-DMSO to obtain 12× stock solutions. […] The concentrated stock solutions were added to the spray solutions so that the final acetone and DMSO concentrations were 16.2% and 0.5%, respectively. Spray solutions were diluted to the appropriate final concentrations with the addition of 10 mL of an aqueous mixture of 1.5% (v/v) Agri-dex crop oil concentrate. […] Compound requirements are based upon a 12 mL application volume at a rate of 187 L/ha. Formulated compounds were applied to the plant material with an overhead Mandel track sprayer equipped with […] nozzles calibrated to deliver 187 L/ha over an application area of 0.503 square meters (m^2) at a spray height of 18 inches (43 cm) above average plant canopy height. Control plants were sprayed in the same manner with the solvent blank. The treated plants and control plants were placed in a greenhouse as described above and watered by sub-irrigation to prevent wash-off of the test compounds. After 20-22 days, the condition of the test plants, compared with that of the untreated plants, was determined visually and scored on a scale of 0 to 100 percent where 0 corresponds to no injury and 100 corresponds to complete kill. By applying the well-accepted probit analysis as described by J. Berkson in Journal of the American Statistical Society, 48, 565 (1953) and by D. Finney in “Probit Analysis” Cambridge University Press (1952), the above data can be used to calculate GR20, GR50, GR80 and GR90 values, which are defined as growth reduction factors that correspond to the effective dose of herbicide required to kill or control 20 percent, 50 percent, 80 percent or 90 percent, respectively, of a target plant.
Structure (SMILES),GR50 BRAPP,GR80 BRAPP
COC(=O)c1nc(-c2ccc(I)cc2)c(Cl)c(N)c1Cl [Compound 96],19 g ai/ha,58 g ai/ha

# Same assay, conditions: CYPSS: sedge (Cyperus difformis, esculentus, iria); probit analysis
Structure (SMILES),GR50 CYPSS,GR80 CYPSS
COC(=O)c1nc(-c2ccc(I)cc2)c(Cl)c(N)c1Cl [Compound 96],3 g ai/ha,6 g ai/ha

# Same assay, conditions: ECHSS: barnyardgrass (Echinochloa crus-galli), junglerice (Echinochloa colonum); probit analysis
Structure (SMILES),GR50 ECHSS,GR80 ECHSS
COC(=O)c1nc(-c2ccc(I)cc2)c(Cl)c(N)c1Cl [Compound 96],29 g ai/ha,84 g ai/ha

# Same assay, conditions: LEFSS: sprangletop (Leptochloa chinensis, Leptochloa dubia); probit analysis
Structure (SMILES),GR50 LEFSS,GR80 LEFSS
COC(=O)c1nc(-c2ccc(I)cc2)c(Cl)c(N)c1Cl [Compound 96],27 g ai/ha,58 g ai/ha

# Same assay, conditions: ORYSS: Oryza sativa (crop); probit analysis
row,Structure (SMILES),GR20 ORYSS
1,COC(=O)c1nc(-c2ccc(I)cc2)c(Cl)c(N)c1Cl [Compound 96],130 g ai/ha

# Same assay, conditions: SCPJU: Japanese bulrush, Scirpus juncoides; probit analysis
Structure (SMILES),GR50 SCPJU,GR80 SCPJU
COC(=O)c1nc(-c2ccc(I)cc2)c(Cl)c(N)c1Cl [Compound 96],1 g ai/ha,1 g ai/ha

# Same assay, conditions: SEBEX: hemp sesbania, Sesbania exaltata; probit analysis
Structure (SMILES),GR50 SEBEX,GR80 SEBEX
COC(=O)c1nc(-c2ccc(I)cc2)c(Cl)c(N)c1Cl [Compound 96],1 g ai/ha,1 g ai/ha

# Same assay, conditions: post-emergence, 504 h; BRAPP: broadleaf signalgrass, Brachiaria platyphylla; 35 g ai/ha; read-out: Visual Growth Reduction (%) 21 Days After Application BRAPP
row,Structure (SMILES),pest or weed control at 35 g/ha
1,COC(=O)c1nc(-c2ccc(I)cc2)c(Cl)c(N)c1Cl [Compound 96],60 to 74%

# Same assay, conditions: post-emergence, 504 h; BRAPP: broadleaf signalgrass, Brachiaria platyphylla; 70 g ai/ha; read-out: Visual Growth Reduction (%) 21 Days After Application BRAPP
row,Structure (SMILES),pest or weed control at 70 g/ha
1,COC(=O)c1nc(-c2ccc(I)cc2)c(Cl)c(N)c1Cl [Compound 96],85 to 94%

# Same assay, conditions: post-emergence, 504 h; CYPSS: sedge (Cyperus difformis, esculentus, iria); 35 g ai/ha; read-out: Visual Growth Reduction (%) 21 Days After Application CYPSS
row,Structure (SMILES),pest or weed control at 35 g/ha
1,COC(=O)c1nc(-c2ccc(I)cc2)c(Cl)c(N)c1Cl [Compound 96],95 to 100%

# Same assay, conditions: post-emergence, 504 h; CYPSS: sedge (Cyperus difformis, esculentus, iria); 70 g ai/ha; read-out: Visual Growth Reduction (%) 21 Days After Application CYPSS
row,Structure (SMILES),pest or weed control at 70 g/ha
1,COC(=O)c1nc(-c2ccc(I)cc2)c(Cl)c(N)c1Cl [Compound 96],95 to 100%

# Same assay, conditions: post-emergence, 504 h; ECHSS: barnyardgrass (Echinochloa crus-galli), junglerice (Echinochloa colonum); 35 g ai/ha; read-out: Visual Growth Reduction (%) 21 Days After Application ECHSS
row,Structure (SMILES),pest or weed control at 35 g/ha
1,COC(=O)c1nc(-c2ccc(I)cc2)c(Cl)c(N)c1Cl [Compound 96],45 to 59%

# Same assay, conditions: post-emergence, 504 h; ECHSS: barnyardgrass (Echinochloa crus-galli), junglerice (Echinochloa colonum); 70 g ai/ha; read-out: Visual Growth Reduction (%) 21 Days After Application ECHSS
row,Structure (SMILES),pest or weed control at 70 g/ha
1,COC(=O)c1nc(-c2ccc(I)cc2)c(Cl)c(N)c1Cl [Compound 96],85 to 94%

# Same assay, conditions: post-emergence, 504 h; LEFSS: sprangletop (Leptochloa chinensis, Leptochloa dubia); 35 g ai/ha; read-out: Visual Growth Reduction (%) 21 Days After Application LEFSS
row,Structure (SMILES),pest or weed control at 35 g/ha
1,COC(=O)c1nc(-c2ccc(I)cc2)c(Cl)c(N)c1Cl [Compound 96],85 to 94%

# Same assay, conditions: post-emergence, 504 h; LEFSS: sprangletop (Leptochloa chinensis, Leptochloa dubia); 70 g ai/ha; read-out: Visual Growth Reduction (%) 21 Days After Application LEFSS
row,Structure (SMILES),pest or weed control at 70 g/ha
1,COC(=O)c1nc(-c2ccc(I)cc2)c(Cl)c(N)c1Cl [Compound 96],75 to 84%

# Same assay, conditions: post-emergence, 504 h; ORYSS: Oryza sativa; 35 g ai/ha; read-out: Visual Growth Reduction (%) 21 Days After Application ORYSS
row,Structure (SMILES),pest or weed control at 35 g/ha
1,COC(=O)c1nc(-c2ccc(I)cc2)c(Cl)c(N)c1Cl [Compound 96],0 to 29%

# Same assay, conditions: post-emergence, 504 h; ORYSS: Oryza sativa; 70 g ai/ha; read-out: Visual Growth Reduction (%) 21 Days After Application ORYSS
row,Structure (SMILES),pest or weed control at 70 g/ha
1,COC(=O)c1nc(-c2ccc(I)cc2)c(Cl)c(N)c1Cl [Compound 96],0 to 29%

# Same assay, conditions: post-emergence, 504 h; SCPJU: Japanese bulrush, Scirpus juncoides; 35 g ai/ha; read-out: Visual Growth Reduction (%) 21 Days After Application SCPJU
row,Structure (SMILES),pest or weed control at 35 g/ha
1,COC(=O)c1nc(-c2ccc(I)cc2)c(Cl)c(N)c1Cl [Compound 96],95 to 100%

# Same assay, conditions: post-emergence, 504 h; SCPJU: Japanese bulrush, Scirpus juncoides; 70 g ai/ha; read-out: Visual Growth Reduction (%) 21 Days After Application SCPJU
row,Structure (SMILES),pest or weed control at 70 g/ha
1,COC(=O)c1nc(-c2ccc(I)cc2)c(Cl)c(N)c1Cl [Compound 96],95 to 100%

# Same assay, conditions: post-emergence, 504 h; SEBEX: hemp sesbania, Sesbania exaltata; 35 g ai/ha; read-out: Visual Growth Reduction (%) 21 Days After Application SEBEX
row,Structure (SMILES),pest or weed control at 35 g/ha
1,COC(=O)c1nc(-c2ccc(I)cc2)c(Cl)c(N)c1Cl [Compound 96],95 to 100%

# Same assay, conditions: post-emergence, 504 h; SEBEX: hemp sesbania, Sesbania exaltata; 70 g ai/ha; read-out: Visual Growth Reduction (%) 21 Days After Application SEBEX
row,Structure (SMILES),pest or weed control at 70 g/ha
1,COC(=O)c1nc(-c2ccc(I)cc2)c(Cl)c(N)c1Cl [Compound 96],95 to 100%
